In paper PMC8231556, “Inhibiting Endothelial Cell Function in Normal and Tumor Angiogenesis Using BMP Type I Receptor Macrocyclic Kinase Inhibitors” (Cancers, 2021):

Columns and labels:
Test in all cases: radiometric kinase profiling (33 PanQinase)
Format in all cases: biochemical
CHEK2 = target: T1, CHEK2 (Homo sapiens, UniProt O96017); conditions: read-out: Inhibitory effect (%) CHEK2
T1 construct: purchased Proqinase, Germany
Experimental: (§1) The kinase inhibition profile of the compounds was determined by testing 96 protein kinases’ activity using a radiometric protein kinase assay (33 PanQinase® Activity Assay, Proqinase, Germany). In brief, 10 µL of non-radioactive ATP solution (in H2O), 25 µL of assay buffer/[γ-33 P]-ATP mixture, 5 µL of 0.1 μM the tested compound in 10% DMSO and 10 µL of enzyme/substrate were mixed in 96-well FlashPlatesTM (Perkin Elmer, Boston, MA, USA). The reaction was conducted at 30 °C for 60 min. To stop the reaction, 50 µL of 2% (v/v) H3PO4 was added into the protein kinase reaction cocktails. After which, with 200 µL 0.9% (w/v) NaCl twice, the incorporation of ^33 Pi (counting of “cpm”) was determined with a microplate scintillation counter (Wallac Microbeta, Boston, MA, USA). All protein kinase assays were performed using a BeckmanCoulter Biomek 2000/SL robotic system (Brea, CA, USA). The residual activity (in %) for each compound was normalized to 100% enzyme activity (untreated control) and background (negative control).

EPHA5 = target: T2, EPHA5 (Homo sapiens, UniProt P54756); conditions: read-out: Inhibitory effect (%) EPHA5
T2 construct: purchased ProQinase (33PanQinase Activity Assay)
Experimental: as §1

FER = target: T3, FER (Homo sapiens, UniProt P16591); conditions: read-out: Inhibitory effect (%) FER
T3 construct: purchased ProQinase (33PanQinase Activity Assay)
Experimental: as §1

IKBKB = target: T4, IKBKB (Homo sapiens, UniProt O14920); conditions: read-out: Inhibitory effect (%) IKBKB
T4 construct: purchased ProQinase (33PanQinase Activity Assay)
T4 sequence (O14920 1-756): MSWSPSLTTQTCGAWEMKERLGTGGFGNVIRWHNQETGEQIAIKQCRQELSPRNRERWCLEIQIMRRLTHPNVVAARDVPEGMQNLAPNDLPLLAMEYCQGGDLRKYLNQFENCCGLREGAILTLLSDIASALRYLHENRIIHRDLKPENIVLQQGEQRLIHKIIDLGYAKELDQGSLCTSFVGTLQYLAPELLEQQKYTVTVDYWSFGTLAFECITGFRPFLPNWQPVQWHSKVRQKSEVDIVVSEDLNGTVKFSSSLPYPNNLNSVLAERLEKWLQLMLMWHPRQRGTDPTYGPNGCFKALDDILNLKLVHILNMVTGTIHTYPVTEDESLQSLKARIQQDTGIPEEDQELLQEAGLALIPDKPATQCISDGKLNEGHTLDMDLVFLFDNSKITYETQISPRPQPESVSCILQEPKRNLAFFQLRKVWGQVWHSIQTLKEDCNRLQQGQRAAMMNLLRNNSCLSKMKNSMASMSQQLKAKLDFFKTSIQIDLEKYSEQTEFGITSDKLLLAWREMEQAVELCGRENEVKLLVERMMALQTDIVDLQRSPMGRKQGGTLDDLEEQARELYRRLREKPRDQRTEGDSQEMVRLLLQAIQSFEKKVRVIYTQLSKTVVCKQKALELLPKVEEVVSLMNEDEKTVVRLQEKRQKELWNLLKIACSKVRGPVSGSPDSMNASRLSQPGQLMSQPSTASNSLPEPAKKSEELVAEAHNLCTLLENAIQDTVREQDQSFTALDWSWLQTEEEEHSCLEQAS
Experimental: as §1

LIMK1 = target: T5, LIMK1 (Homo sapiens, UniProt P53667); conditions: read-out: Inhibitory effect (%) LIMK1
T5 construct: purchased ProQinase (33PanQinase Activity Assay)
Experimental: as §1

MAPK14 = target: T6, MAPK14 (Homo sapiens, UniProt Q16539); conditions: read-out: Inhibitory effect (%) MAPK14
T6 construct: purchased ProQinase (33PanQinase Activity Assay)
Experimental: as §1

MET = target: T7, MET (Homo sapiens, UniProt P08581); conditions: read-out: Inhibitory effect (%) MET
T7 construct: purchased ProQinase (33PanQinase Activity Assay)
Experimental: as §1

NEK1 = target: T8, NEK1 (Homo sapiens, UniProt Q96PY6); conditions: read-out: Inhibitory effect (%) NEK1
T8 construct: purchased ProQinase (33PanQinase Activity Assay)
T8 sequence (Q96PY6 1-1258): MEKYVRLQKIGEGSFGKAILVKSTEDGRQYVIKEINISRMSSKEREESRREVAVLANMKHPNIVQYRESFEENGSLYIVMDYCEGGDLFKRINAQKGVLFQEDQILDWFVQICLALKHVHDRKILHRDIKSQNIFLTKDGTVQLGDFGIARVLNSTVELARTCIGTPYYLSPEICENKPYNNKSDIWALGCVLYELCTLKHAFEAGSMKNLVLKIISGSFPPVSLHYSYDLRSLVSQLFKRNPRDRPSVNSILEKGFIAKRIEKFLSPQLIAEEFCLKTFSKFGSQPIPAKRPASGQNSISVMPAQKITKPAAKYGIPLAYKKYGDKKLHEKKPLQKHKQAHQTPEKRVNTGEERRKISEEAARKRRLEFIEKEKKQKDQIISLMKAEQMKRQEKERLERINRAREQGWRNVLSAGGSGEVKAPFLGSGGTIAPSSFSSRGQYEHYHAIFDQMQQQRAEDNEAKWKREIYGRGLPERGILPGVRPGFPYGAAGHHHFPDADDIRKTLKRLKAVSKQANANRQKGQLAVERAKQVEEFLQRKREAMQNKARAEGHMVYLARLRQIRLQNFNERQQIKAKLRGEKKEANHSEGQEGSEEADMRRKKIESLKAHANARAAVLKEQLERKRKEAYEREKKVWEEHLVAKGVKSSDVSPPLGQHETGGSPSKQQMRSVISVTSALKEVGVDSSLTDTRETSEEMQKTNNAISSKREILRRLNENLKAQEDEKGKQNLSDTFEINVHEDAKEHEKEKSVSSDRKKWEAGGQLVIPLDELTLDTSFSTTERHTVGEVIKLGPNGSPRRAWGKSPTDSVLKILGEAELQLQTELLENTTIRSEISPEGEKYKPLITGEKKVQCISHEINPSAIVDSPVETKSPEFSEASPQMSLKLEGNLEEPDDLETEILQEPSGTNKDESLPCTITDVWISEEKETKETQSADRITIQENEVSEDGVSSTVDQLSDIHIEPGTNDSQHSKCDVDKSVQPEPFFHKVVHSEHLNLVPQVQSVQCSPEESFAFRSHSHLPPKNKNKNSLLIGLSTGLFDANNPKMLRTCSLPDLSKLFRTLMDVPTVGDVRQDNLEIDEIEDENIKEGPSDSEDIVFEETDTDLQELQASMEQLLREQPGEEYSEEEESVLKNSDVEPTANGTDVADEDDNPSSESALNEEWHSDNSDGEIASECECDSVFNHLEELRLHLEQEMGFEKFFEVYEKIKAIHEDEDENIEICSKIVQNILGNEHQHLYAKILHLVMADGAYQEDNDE
Experimental: as §1

RIPK2 = target: T9, RIPK2 (Homo sapiens, UniProt O43353); conditions: read-out: Inhibitory effect (%) RIPK2
T9 construct: purchased ProQinase (33PanQinase Activity Assay)
Experimental: as §1

T1 sequence (O96017 whole entry): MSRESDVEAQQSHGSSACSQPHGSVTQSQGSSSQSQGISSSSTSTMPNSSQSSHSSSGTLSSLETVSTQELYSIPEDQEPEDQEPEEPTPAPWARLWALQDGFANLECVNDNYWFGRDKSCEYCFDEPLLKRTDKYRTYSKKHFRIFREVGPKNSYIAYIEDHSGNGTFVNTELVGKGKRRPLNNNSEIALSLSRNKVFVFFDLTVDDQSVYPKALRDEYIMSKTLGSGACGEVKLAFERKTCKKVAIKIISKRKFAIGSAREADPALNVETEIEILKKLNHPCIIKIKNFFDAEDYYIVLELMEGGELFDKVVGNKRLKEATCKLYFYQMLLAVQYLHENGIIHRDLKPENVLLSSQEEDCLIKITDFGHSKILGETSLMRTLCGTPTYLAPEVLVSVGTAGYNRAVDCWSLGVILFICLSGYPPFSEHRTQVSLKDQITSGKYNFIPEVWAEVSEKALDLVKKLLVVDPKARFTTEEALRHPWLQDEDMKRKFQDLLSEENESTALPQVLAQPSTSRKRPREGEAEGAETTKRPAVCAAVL
T5 sequence (P53667 whole entry): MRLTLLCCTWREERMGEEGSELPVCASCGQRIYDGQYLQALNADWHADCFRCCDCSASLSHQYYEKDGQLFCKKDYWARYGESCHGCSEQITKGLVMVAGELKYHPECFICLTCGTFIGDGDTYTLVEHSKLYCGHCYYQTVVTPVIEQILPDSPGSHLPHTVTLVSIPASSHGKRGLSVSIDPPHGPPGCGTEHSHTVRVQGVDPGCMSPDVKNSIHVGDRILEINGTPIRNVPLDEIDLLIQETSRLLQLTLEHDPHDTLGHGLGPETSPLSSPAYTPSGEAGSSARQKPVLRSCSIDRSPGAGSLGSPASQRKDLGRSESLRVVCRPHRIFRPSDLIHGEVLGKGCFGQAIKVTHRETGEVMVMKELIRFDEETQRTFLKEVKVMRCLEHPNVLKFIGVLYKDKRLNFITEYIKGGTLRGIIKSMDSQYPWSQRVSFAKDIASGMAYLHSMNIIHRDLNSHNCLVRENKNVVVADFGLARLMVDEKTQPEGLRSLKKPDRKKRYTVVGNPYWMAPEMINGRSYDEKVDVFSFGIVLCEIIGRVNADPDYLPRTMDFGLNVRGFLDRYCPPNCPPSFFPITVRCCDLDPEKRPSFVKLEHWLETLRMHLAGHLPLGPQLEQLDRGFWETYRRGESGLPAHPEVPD
T6 sequence (Q16539 whole entry): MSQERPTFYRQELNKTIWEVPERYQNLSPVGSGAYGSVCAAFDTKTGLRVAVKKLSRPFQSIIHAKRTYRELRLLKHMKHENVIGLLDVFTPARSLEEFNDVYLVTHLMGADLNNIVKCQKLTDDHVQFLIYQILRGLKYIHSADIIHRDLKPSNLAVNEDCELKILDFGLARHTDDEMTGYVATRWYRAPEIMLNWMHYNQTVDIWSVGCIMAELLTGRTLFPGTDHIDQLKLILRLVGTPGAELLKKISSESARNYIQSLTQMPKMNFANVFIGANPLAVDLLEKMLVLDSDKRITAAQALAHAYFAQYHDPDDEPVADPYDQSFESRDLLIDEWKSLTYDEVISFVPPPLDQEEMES
T3 sequence (P16591 whole entry): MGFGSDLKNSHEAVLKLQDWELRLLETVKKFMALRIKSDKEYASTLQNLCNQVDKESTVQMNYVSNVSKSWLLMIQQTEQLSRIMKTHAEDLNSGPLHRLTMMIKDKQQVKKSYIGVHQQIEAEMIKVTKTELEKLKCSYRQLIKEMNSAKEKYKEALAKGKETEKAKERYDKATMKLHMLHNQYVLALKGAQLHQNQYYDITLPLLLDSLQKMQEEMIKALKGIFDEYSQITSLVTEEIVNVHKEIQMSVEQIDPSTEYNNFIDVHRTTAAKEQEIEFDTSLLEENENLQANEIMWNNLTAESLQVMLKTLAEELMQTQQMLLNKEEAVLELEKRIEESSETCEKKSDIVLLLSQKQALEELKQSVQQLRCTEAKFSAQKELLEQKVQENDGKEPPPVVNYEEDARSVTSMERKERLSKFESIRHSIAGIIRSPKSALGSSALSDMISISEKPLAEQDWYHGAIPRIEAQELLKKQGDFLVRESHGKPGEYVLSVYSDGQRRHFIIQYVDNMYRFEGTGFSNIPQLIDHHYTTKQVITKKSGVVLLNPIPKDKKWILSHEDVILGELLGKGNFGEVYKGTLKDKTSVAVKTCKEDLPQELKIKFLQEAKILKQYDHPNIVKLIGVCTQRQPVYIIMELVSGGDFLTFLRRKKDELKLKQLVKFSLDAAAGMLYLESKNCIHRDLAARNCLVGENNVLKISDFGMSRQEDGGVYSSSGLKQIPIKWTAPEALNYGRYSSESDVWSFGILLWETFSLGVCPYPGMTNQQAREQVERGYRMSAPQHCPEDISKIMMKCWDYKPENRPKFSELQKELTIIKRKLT
T7 sequence (P08581 25-1390): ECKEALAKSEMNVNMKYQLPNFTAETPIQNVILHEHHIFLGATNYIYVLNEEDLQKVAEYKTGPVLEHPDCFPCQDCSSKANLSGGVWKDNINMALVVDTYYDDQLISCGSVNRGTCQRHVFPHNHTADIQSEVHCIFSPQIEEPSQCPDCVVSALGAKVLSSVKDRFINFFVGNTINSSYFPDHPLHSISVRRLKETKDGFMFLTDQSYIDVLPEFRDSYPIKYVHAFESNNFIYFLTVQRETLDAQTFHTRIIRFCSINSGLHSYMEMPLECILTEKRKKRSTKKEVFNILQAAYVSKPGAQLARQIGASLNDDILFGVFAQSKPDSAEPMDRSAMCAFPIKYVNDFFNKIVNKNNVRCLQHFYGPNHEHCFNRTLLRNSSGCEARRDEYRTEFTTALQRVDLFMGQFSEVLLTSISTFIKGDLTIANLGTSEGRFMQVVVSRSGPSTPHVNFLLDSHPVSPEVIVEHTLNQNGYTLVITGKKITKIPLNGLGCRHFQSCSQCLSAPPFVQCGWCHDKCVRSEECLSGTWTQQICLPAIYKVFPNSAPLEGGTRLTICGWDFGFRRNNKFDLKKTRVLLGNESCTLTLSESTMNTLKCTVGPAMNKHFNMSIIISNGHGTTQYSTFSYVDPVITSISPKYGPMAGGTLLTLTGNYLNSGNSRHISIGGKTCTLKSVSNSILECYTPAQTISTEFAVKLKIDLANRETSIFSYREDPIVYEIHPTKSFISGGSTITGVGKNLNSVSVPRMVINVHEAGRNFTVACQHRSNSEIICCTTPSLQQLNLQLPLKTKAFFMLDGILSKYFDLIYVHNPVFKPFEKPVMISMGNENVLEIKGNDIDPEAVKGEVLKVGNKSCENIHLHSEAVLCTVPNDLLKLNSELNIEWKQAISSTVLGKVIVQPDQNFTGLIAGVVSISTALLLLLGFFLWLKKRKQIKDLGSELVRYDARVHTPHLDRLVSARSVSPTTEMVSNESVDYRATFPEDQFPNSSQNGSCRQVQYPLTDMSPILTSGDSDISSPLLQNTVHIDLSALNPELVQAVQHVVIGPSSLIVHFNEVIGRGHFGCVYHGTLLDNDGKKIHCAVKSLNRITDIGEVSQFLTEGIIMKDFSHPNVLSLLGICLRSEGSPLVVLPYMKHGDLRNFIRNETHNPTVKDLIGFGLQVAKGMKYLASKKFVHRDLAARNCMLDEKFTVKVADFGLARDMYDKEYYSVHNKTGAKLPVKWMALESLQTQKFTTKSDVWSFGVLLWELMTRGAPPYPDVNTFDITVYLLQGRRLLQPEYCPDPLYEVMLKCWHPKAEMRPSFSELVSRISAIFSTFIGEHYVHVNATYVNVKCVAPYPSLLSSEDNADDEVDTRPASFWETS
T9 sequence (O43353 whole entry): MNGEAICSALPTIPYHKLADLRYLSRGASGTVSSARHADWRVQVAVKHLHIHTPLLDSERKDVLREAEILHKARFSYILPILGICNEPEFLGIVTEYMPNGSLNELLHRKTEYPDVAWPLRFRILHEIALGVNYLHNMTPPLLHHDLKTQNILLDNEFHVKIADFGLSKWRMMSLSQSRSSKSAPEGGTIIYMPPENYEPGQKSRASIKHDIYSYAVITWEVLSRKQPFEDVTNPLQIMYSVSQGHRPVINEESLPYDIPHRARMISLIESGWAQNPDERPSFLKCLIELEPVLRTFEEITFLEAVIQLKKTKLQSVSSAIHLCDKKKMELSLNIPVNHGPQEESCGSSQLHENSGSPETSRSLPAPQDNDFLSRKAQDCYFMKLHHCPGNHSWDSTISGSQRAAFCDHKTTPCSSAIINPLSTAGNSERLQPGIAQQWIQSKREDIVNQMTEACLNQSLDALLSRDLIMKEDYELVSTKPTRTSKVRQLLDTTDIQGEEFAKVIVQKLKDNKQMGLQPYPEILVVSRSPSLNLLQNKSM

SMILES | inhibition at 0.1 µM (CHEK2) [%] | inhibition at 0.1 µM (EPHA5) [%] | inhibition at 0.1 µM (FER) [%] | inhibition at 0.1 µM (IKBKB) [%] | inhibition at 0.1 µM (LIMK1) [%] | inhibition at 0.1 µM (MAPK14) [%] | inhibition at 0.1 µM (MET) [%] | inhibition at 0.1 µM (NEK1) [%] | inhibition at 0.1 µM (RIPK2) [%]
CN1CCC(=O)NCCNc2ccn3ncc(c3n2)-c2cccc(c2)C1 [OD29] | -0.87 | 14.8 | -7.91 | -9.1 | 1.15 | 45.2 | -3.42 | 12.6 | 62.5
CN1CCc2cccc(c2)Nc2nccc(n2)N2CCCc3cc(ccc32)C1 [OD16] | 7.12 | -65.7 | -18.9 | 1.32 | 30.3 | -3.1 | 5.95 | -6.3 | 36.5
c1ccc2c(-c3cnn4cc(-c5ccc(N6CCNCC6)cc5)cnc34)ccnc2c1 [LDN-193189, reference compound] | -0.88 | -0.32 | 14.4 | 1.34 | 8.92 | 0.3 | 1.47 | -11.9 | 91.1
